Source: ChEMBL document CHEMBL1201861, “Genomics of Drug Sensitity in Cancer screening data, Wellcome Trust Sanger Institute”

What was measured:
K052 = experiment: cells; type: functional, cell-based, Homo sapiens; conditions: Homo sapiens, K052
Description: SANGER: Inhibition of human K052 cell growth in a cell viability assay.

TUR = experiment: cells; type: functional, cell-based, Homo sapiens; conditions: Homo sapiens, TUR
Description: SANGER: Inhibition of human TUR cell growth in a cell viability assay.

SNU-16 = experiment: cells; type: functional, cell-based, Homo sapiens; conditions: Homo sapiens, SNU-16
Description: SANGER: Inhibition of human NCI-SNU-16 cell growth in a cell viability assay.

CESS = experiment: SANGER: Inhibition of human CESS cell growth in a cell viability assay.; type: functional, cell-based; conditions: Homo sapiens, CESS
NB7 = experiment: cells; type: functional, cell-based, Homo sapiens; conditions: Homo sapiens, NB7
Description: SANGER: Inhibition of human NB7 cell growth in a cell viability assay.

RPMI-6666 = experiment: cells; type: functional, cell-based, Homo sapiens; conditions: Homo sapiens, RPMI-6666
Description: SANGER: Inhibition of human RPMI-6666 cell growth in a cell viability assay.

KP-N-YN = experiment: cells; type: functional, cell-based, Homo sapiens; conditions: Homo sapiens, KP-N-YN
Description: SANGER: Inhibition of human KP-N-YN cell growth in a cell viability assay.

SNU-C1 = experiment: cells; type: functional, cell-based, Homo sapiens; conditions: Homo sapiens, SNU-C1
Description: SANGER: Inhibition of human SNU-C1 cell growth in a cell viability assay.

D-542MG = experiment: cells; type: functional, cell-based, Homo sapiens; conditions: Homo sapiens, D-542MG
Description: SANGER: Inhibition of human D-542MG cell growth in a cell viability assay.

NCI-H719 = experiment: cells; type: functional, cell-based, Homo sapiens; conditions: Homo sapiens, NCI-H719
Description: SANGER: Inhibition of human NCI-H719 cell growth in a cell viability assay.

NCI-H345 = experiment: cells; type: functional, cell-based, Homo sapiens; conditions: Homo sapiens, NCI-H345
Description: SANGER: Inhibition of human NCI-H345 cell growth in a cell viability assay.

NCI-H2141 = experiment: cells; type: functional, cell-based, Homo sapiens; conditions: Homo sapiens, NCI-H2141
Description: SANGER: Inhibition of human NCI-H2141 cell growth in a cell viability assay.

NCI-H889 = experiment: cells; type: functional, cell-based, Homo sapiens; conditions: Homo sapiens, NCI-H889
Description: SANGER: Inhibition of human NCI-H889 cell growth in a cell viability assay.

IM-9 = experiment: SANGER: Inhibition of human IM-9 cell growth in a cell viability assay.; type: functional, cell-based; conditions: Homo sapiens, IM-9
MDA-MB-453 = experiment: cells; type: functional, cell-based, Homo sapiens; conditions: Homo sapiens, MDA-MB-453
Description: SANGER: Inhibition of human MDA-MB-453 cell growth in a cell viability assay.

NCI-H650 = experiment: cells; type: functional, cell-based, Homo sapiens; conditions: Homo sapiens, NCI-H650
Description: SANGER: Inhibition of human NCI-H650 cell growth in a cell viability assay.

NCI-H2405 = experiment: cells; type: functional, cell-based, Homo sapiens; conditions: Homo sapiens, NCI-H2405
Description: SANGER: Inhibition of human NCI-H2405 cell growth in a cell viability assay.

CHL-1 = experiment: cells; type: functional, cell-based, Homo sapiens; conditions: Homo sapiens, CHL-1
Description: SANGER: Inhibition of human CHL-1 cell growth in a cell viability assay.

OE19 = experiment: cells; type: functional, cell-based, Homo sapiens; conditions: Homo sapiens, OE19
Description: SANGER: Inhibition of human OE19 cell growth in a cell viability assay.

HCC70 = experiment: cells; type: functional, cell-based, Homo sapiens; conditions: Homo sapiens, HCC70
Description: SANGER: Inhibition of human HCC70 cell growth in a cell viability assay.

SK-MEL-28 = experiment: cells; type: functional, cell-based, Homo sapiens; conditions: Homo sapiens, SK-MEL-28
Description: SANGER: Inhibition of human SK-MEL-28 cell growth in a cell viability assay.

A-375 = experiment: cells; type: functional, cell-based, Homo sapiens; conditions: Homo sapiens, A-375
Description: SANGER: Inhibition of human A375 cell growth in a cell viability assay.

HuCCT-1 = experiment: cells; type: functional, cell-based, Homo sapiens, HuCCT1; conditions: Homo sapiens, HuCCT-1
Description: SANGER: Inhibition of human HuCCT1 cell growth in a cell viability assay.

23132-87 = experiment: cells; type: functional, cell-based, Homo sapiens; conditions: Homo sapiens
Description: SANGER: Inhibition of human 23132-87 cell growth in a cell viability assay.

CAL-54 = experiment: cells; type: functional, cell-based, Homo sapiens; conditions: Homo sapiens, CAL-54
Description: SANGER: Inhibition of human CAL-54 cell growth in a cell viability assay.

J82 = experiment: cells; type: functional, cell-based, Homo sapiens; conditions: Homo sapiens, J82
Description: SANGER: Inhibition of human J82 cell growth in a cell viability assay.

NCI-H1703 = experiment: cells; type: functional, cell-based, Homo sapiens; conditions: Homo sapiens, NCI-H1703
Description: SANGER: Inhibition of human NCI-H1703 cell growth in a cell viability assay.

C-33-A = experiment: cells; type: functional, cell-based, Homo sapiens; conditions: Homo sapiens, C-33-A
Description: SANGER: Inhibition of human C-33-A cell growth in a cell viability assay.

DMS-273 = experiment: cells; type: functional, cell-based, Homo sapiens; conditions: Homo sapiens, DMS-273
Description: SANGER: Inhibition of human DMS-273 cell growth in a cell viability assay.

ASPC1 = experiment: cells; type: functional, cell-based, Homo sapiens; conditions: Homo sapiens, ASPC1
Description: SANGER: Inhibition of human AsPC-1 cell growth in a cell viability assay.

HCC1419 = experiment: cells; type: functional, cell-based, Homo sapiens; conditions: Homo sapiens, HCC1419
Description: SANGER: Inhibition of human HCC1419 cell growth in a cell viability assay.

BEN = experiment: cells; type: functional, cell-based, Homo sapiens; conditions: Homo sapiens, BEN
Description: SANGER: Inhibition of human BEN cell growth in a cell viability assay.

DU-145 = experiment: cells; type: functional, cell-based, Homo sapiens; conditions: Homo sapiens, DU-145
Description: SANGER: Inhibition of human DU-145 cell growth in a cell viability assay.

RD = experiment: cells; type: functional, cell-based, Homo sapiens; conditions: Homo sapiens, RD
Description: SANGER: Inhibition of human RD cell growth in a cell viability assay.

HPAF-II = experiment: cells; type: functional, cell-based, Homo sapiens; conditions: Homo sapiens, HPAF-II
Description: SANGER: Inhibition of human HPAF-II cell growth in a cell viability assay.

SW1573 = experiment: cells; type: functional, cell-based, Homo sapiens; conditions: Homo sapiens, SW1573
Description: SANGER: Inhibition of human SW1573 cell growth in a cell viability assay.

DK-MG = experiment: cells; type: functional, cell-based, Homo sapiens; conditions: Homo sapiens, DK-MG
Description: SANGER: Inhibition of human DK-MG cell growth in a cell viability assay.

CAL-27 = experiment: cells; type: functional, cell-based, Homo sapiens; conditions: Homo sapiens, CAL-27
Description: SANGER: Inhibition of human CAL-27 cell growth in a cell viability assay.

NCI-H810 = experiment: cells; type: functional, cell-based, Homo sapiens; conditions: Homo sapiens, NCI-H810
Description: SANGER: Inhibition of human NCI-H810 cell growth in a cell viability assay.

SW948 = experiment: cells; type: functional, cell-based, Homo sapiens; conditions: Homo sapiens, SW948
Description: SANGER: Inhibition of human SW948 cell growth in a cell viability assay.

LoVo = experiment: cells; type: functional, cell-based, Homo sapiens; conditions: Homo sapiens, LoVo
Description: SANGER: Inhibition of human LoVo cell growth in a cell viability assay.

NCI-H28 = experiment: cells; type: functional, cell-based, Homo sapiens; conditions: Homo sapiens, NCI-H28
Description: SANGER: Inhibition of human NCI-H28 cell growth in a cell viability assay.

FTC-133 = experiment: cells; type: functional, cell-based, Homo sapiens; conditions: Homo sapiens, FTC-133
SCC-4 = experiment: cells; type: functional, cell-based, Homo sapiens; conditions: Homo sapiens, SCC-4
Description: SANGER: Inhibition of human SCC-4 cell growth in a cell viability assay.

MC-IXC = experiment: cells; type: functional, cell-based, Homo sapiens; conditions: Homo sapiens, MC-IXC
Description: SANGER: Inhibition of human MC-IXC cell growth in a cell viability assay.

## COc1cc(N2CCN(C)CC2)ccc1Nc1ncc2c(n1)N(C)c1ccccc1C(=O)N2C
K052
  IC50: 6.24 µM
TUR
  IC50: > 8 µM
SNU-16
  IC50: > 8 µM
CESS
  IC50: 7.75 µM
NB7
  IC50: > 8 µM
RPMI-6666
  IC50: 7.86 µM
KP-N-YN
  IC50: > 8 µM
SNU-C1
  IC50: > 8 µM
D-542MG
  IC50: 2 µM
NCI-H719
  IC50: > 8 µM
NCI-H345
  IC50: > 8 µM
NCI-H2141
  IC50: > 8 µM
NCI-H889
  IC50: > 8 µM
IM-9
  IC50: > 8 µM

## Cc1cc([N+](=O)[O-])ccc1NS(=O)(=O)c1cc(Cl)ccc1Cl
MDA-MB-453
  IC50: 10.8 µM
K052
  IC50: 14.2 µM
TUR
  IC50: 9.58 µM
NCI-H650
  IC50: 2.78 µM
NCI-H2405
  IC50: 3.96 µM
CHL-1
  IC50: 2.18 µM
SNU-16
  IC50: > 32 µM
OE19
  IC50: 3.78 µM
CESS
  IC50: > 32 µM
HCC70
  IC50: 6.62 µM
RPMI-6666
  IC50: 20.2 µM
SK-MEL-28
  IC50: 0.355 µM
A-375
  IC50: 3.58 µM
HuCCT-1
  IC50: 7.32 µM
23132-87
  IC50: 3.5 µM
CAL-54
  IC50: 5.44 µM
J82
  IC50: 2.62 µM
KP-N-YN
  IC50: 10.2 µM
NCI-H1703
  IC50: 3.29 µM
C-33-A
  IC50: 2 µM
DMS-273
  IC50: 0.719 µM
ASPC1
  IC50: 22.3 µM
HCC1419
  IC50: 3.89 µM
SNU-C1
  IC50: > 32 µM
BEN
  IC50: 2.28 µM
D-542MG
  IC50: 0.277 µM
DU-145
  IC50: 4.69 µM
RD
  IC50: 7.33 µM
NCI-H719
  IC50: > 32 µM
HPAF-II
  IC50: 10.7 µM
SW1573
  IC50: 9.54 µM
DK-MG
  IC50: 12.3 µM
NCI-H345
  IC50: 17.8 µM
CAL-27
  IC50: 3.16 µM
NCI-H2141
  IC50: > 32 µM
NCI-H810
  IC50: 1.25 µM
SW948
  IC50: 12.3 µM
LoVo
  IC50: 2 µM
NCI-H28
  IC50: 8.5 µM
FTC-133
  IC50: 6.74 µM
NCI-H889
  IC50: > 32 µM
SCC-4
  IC50: 13.8 µM
MC-IXC
  IC50: 2.51 µM
IM-9
  IC50: 14.1 µM
